Measurements as given in ChEMBL document CHEMBL1143505, “Synthesis and pharmacological investigation of novel 1-substituted-4-phenyl-1,2,4-triazolo[4,3-a]quinazolin-5(4H)-ones as a new class of H1-antihistaminic agents” (2005).

Assays:
Cavia porcellus [1] = species: Cavia porcellus; test: Percentage reduction central nervous system depression in guinea pig by compound
Cavia porcellus [2] = species: Cavia porcellus; test: Percentage protection of guinea pigs from histamine induced bronchospasm by compound; set-up: concentration or dose not given beside the values

O=c1c2ccccc2n2cnnc2n1-c1ccccc1
Depression (Cavia porcellus [1]): 4.2%
Protection (Cavia porcellus [2]): 69.9%

Cc1nnc2n(-c3ccccc3)c(=O)c3ccccc3n12
Depression (Cavia porcellus [1]): 4.8%
Protection (Cavia porcellus [2]): 70.7%

O=c1c2ccccc2n2c(CCl)nnc2n1-c1ccccc1
Depression (Cavia porcellus [1]): 3.7%
Protection (Cavia porcellus [2]): 68.7%

CCCc1nnc2n(-c3ccccc3)c(=O)c3ccccc3n12
Depression (Cavia porcellus [1]): 7.3%
Protection (Cavia porcellus [2]): 69.2%

CCc1nnc2n(-c3ccccc3)c(=O)c3ccccc3n12
Depression (Cavia porcellus [1]): 5.3%
Protection (Cavia porcellus [2]): 70%

O=C(O)COCCN1CCN(C(c2ccccc2)c2ccc(Cl)cc2)CC1 (centres undefined) [CETIRIZINE]
Depression (Cavia porcellus [1]): 8.5%
Protection (Cavia porcellus [2]): 78.9%

CN(C)CCC(c1ccc(Cl)cc1)c1ccccn1.O=C(O)/C=C\C(=O)O (centres undefined) [CHLORPHENIRAMINE MALEATE]
Depression (Cavia porcellus [1]): 26%
Protection (Cavia porcellus [2]): 71%
